Source: US10159640B2, “Prebiotic oral care compositions containing amino acids” (COLGATE-PALMOLIVE COMPANY, priority 2013, dated 2018)
Residues, ends and D or L forms follow the SMILES beside them.

How the values were obtained:
Format in all cases: cell-based
Actinomyces naeslundii = test: Metabolic activity, Biolog phenotype microarray; details: control without dipeptide = 1
Experimental: (§1) The extent of metabolic activity of the tested bacteria in the presence of the above-mentioned dipeptides after 24 hours and 48 hours was investigated through a high throughput phenotype microarray system (PM) for microbial cells (Biolog Inc.). Each PM can contain up to 95 different biochemical compounds (e.g. di-peptides) that may act as substrates for bacteria as well as one negative control, not containing the substrates. Microarray plates were used in which the different wells of each plate were pre-loaded (by the manufacturer, Biolog Inc.) with different di-peptides to be tested. Each bacterial species was tested using a separate microarray plate. Thus, a single bacterial species was tested with a variety of dipeptides on each particular plate. The microarrays are based on redox technology, using cell respiration as a universal reporter. Active cell respiration results in the reduction of a tetrazolium dye and in the formation of a strong color—for example, when using the tetrazolium dye “Biolog Redox Dye Mix D”, the color changes from transparent/colourless to purple when the dye is reduced. The observation of this color change indicates which of the substrates improve the metabolic activity and health of the cells. Each bacterial species was collected from blood agar plates (incubated for 48 hours anaerobically at 37° C.) and transferred to an IF-0 Base inoculation fluid (Biolog Inc.), which is a nutritionally poor medium. The resulting cell suspension was adjusted to a transmittance of 42% (relative to the transmittance of the base inoculation fluid with no bacterial species present) at 492 nm using a BioRad SmartSpec 3000 Photometer (the adjustment being effected by adding either further inoculation fluid or further bacteria until the transmittance of 42% was achieved). A 1:5 dilution of this suspension was prepared by mixing 3 mL of the 42% transmittance cell suspension with 15 mL of an inoculation fluid (which inoculation fluid was formed by mixing 11.6 mL sterile water, 62.5 mL IF-0 base inoculation fluid and 0.9 mL of the tetrazolium dye “Biolog Redox Dye mix D”), resulting in a final cell density which was equal to 85% transmittance using a BioRad SmartSpec 3000 Photometer. 680 μL of a 2M sodium succinate/200 μM ferric citrate solution in distilled water was added to 68 mL of the 85% transmittance cell suspension and 100 μL of this mixture was added to each well (the various di-peptides being already present in powder form in the relevant wells of the plate as obtained from the supplier i.e. Biolog Inc.). All plates were incubated in an anaerobic atmosphere at 37° C. Color changes were measured spectrophotometrically at 492 nm (Thermo Scientific Multiskan Ascent) at 24 hrs and 48 hrs using the same plate at both time points. […] After 24 hrs and 48 hrs under continuous shaking in a Multiscan microplate reader, the optical density (OD) of the synthetic medium at 24 hours and 48 hours was measured (using the microplate reader) at a wavelength of 492 nm for each combination of bacterium/dipeptide, and for each of their respective controls (i.e. which contained the particular bacterium but no dipeptide). […] The experiment was carried out three times for each combination of bacterium with dipeptide, with each repeat being carried out on a different day (thus providing three biological replicas). The controls were also carried out three times, as above. The values shown are the average (mean) of the three single values obtained (as detailed above) for each combination of bacterium with dipeptide, at 24 hrs and at 48 hrs.

Actinomyces viscosus = test: Metabolic activity, Biolog phenotype microarray; details: control without dipeptide = 1
Experimental: as §1

[1] = test system: Aggregatibacter actinomycetemcomitans; test: Metabolic activity, Biolog phenotype microarray; details: control without dipeptide = 1
Experimental: as §1

Capnocytophaga sputigena = test: Metabolic activity, Biolog phenotype microarray; details: control without dipeptide = 1
Experimental: as §1

Fusobacterium nucleatum = test: Metabolic activity, Biolog phenotype microarray; details: control without dipeptide = 1
Experimental: as §1

Porphyromonas gingivalis = test: Metabolic activity, Biolog phenotype microarray; details: control without dipeptide = 1
Experimental: as §1

Prevotella intermedia = test: Metabolic activity, Biolog phenotype microarray; details: control without dipeptide = 1
Experimental: as §1

Streptococcus gordonii = test: Metabolic activity, Biolog phenotype microarray; details: control without dipeptide = 1
Experimental: as §1

Streptococcus mitis = test: Metabolic activity, Biolog phenotype microarray; details: control without dipeptide = 1
Experimental: as §1

Streptococcus mutans = test: Metabolic activity, Biolog phenotype microarray; details: control without dipeptide = 1
Experimental: as §1

Streptococcus salivarius = test: Metabolic activity, Biolog phenotype microarray; details: control without dipeptide = 1
Experimental: as §1

Streptococcus sanguinis = test: Metabolic activity, Biolog phenotype microarray; details: control without dipeptide = 1
Experimental: as §1

Streptococcus sobrinus = test: Metabolic activity, Biolog phenotype microarray; details: control without dipeptide = 1
Experimental: as §1

Tannerella forsythia = test: Metabolic activity, Biolog phenotype microarray; details: control without dipeptide = 1
Experimental: as §1

Veillonella parvula = test: Metabolic activity, Biolog phenotype microarray; details: control without dipeptide = 1
Experimental: as §1

[2] = test system: beneficial oral bacteria and pathogenic oral bacteria; test: Metabolic activity, whole panel: prebiotic effect; details: for prebiotic effects (metabolic activity): threshold value of 2
Experimental: Substrates that were able to increase the metabolic activity of at least one of the above beneficial bacteria while not or only minimally increasing the growth of the pathogenic bacteria are considered to be prebiotic substrates. The extent of metabolic activity of the tested bacteria in the presence of the above-mentioned dipeptides after 24 hours and 48 hours was investigated through a high throughput phenotype microarray system (PM) for microbial cells (Biolog Inc.). Each PM can contain up to 95 different biochemical compounds (e.g. di-peptides) that may act as substrates for bacteria as well as one negative control, not containing the substrates. Microarray plates were used in which the different wells of each plate were pre-loaded (by the manufacturer, Biolog Inc.) with different di-peptides to be tested. Each bacterial species was tested using a separate microarray plate. Thus, a single bacterial species was tested with a variety of dipeptides on each particular plate. The microarrays are based on redox technology, using cell respiration as a universal reporter. Active cell respiration results in the reduction of a tetrazolium dye and in the formation of a strong color—for example, when using the tetrazolium dye “Biolog Redox Dye Mix D”, the color changes from transparent/colourless to purple when the dye is reduced. The observation of this color change indicates which of the substrates improve the metabolic activity and health of the cells. Each bacterial species was collected from blood agar plates (incubated for 48 hours anaerobically at 37° C.) and transferred to an IF-0 Base inoculation fluid (Biolog Inc.), which is a nutritionally poor medium. The resulting cell suspension was adjusted to a transmittance of 42% (relative to the transmittance of the base inoculation fluid with no bacterial species present) at 492 nm using a BioRad SmartSpec 3000 Photometer (the adjustment being effected by adding either further inoculation fluid or further bacteria until the transmittance of 42% was achieved). A 1:5 dilution of this suspension was prepared by mixing 3 mL of the 42% transmittance cell suspension with 15 mL of an inoculation fluid (which inoculation fluid was formed by mixing 11.6 mL sterile water, 62.5 mL IF-0 base inoculation fluid and 0.9 mL of the tetrazolium dye “Biolog Redox Dye mix D”), resulting in a final cell density which was equal to 85% transmittance using a BioRad SmartSpec 3000 Photometer. 680 μL of a 2M sodium succinate/200 μM ferric citrate solution in distilled water was added to 68 mL of the 85% transmittance cell suspension and 100 μL of this mixture was added to each well (the various di-peptides being already present in powder form in the relevant wells of the plate as obtained from the supplier i.e. Biolog Inc.). All plates were incubated in an anaerobic atmosphere at 37° C. Color changes were measured spectrophotometrically at 492 nm (Thermo Scientific Multiskan Ascent) at 24 hrs and 48 hrs using the same plate at both time points. […] After 24 hrs and 48 hrs under continuous shaking in a Multiscan microplate reader, the optical density (OD) of the synthetic medium at 24 hours and 48 hours was measured (using the microplate reader) at a wavelength of 492 nm for each combination of bacterium/dipeptide, and for each of their respective controls (i.e. which contained the particular bacterium but no dipeptide). […] The experiment was carried out three times for each combination of bacterium with dipeptide, with each repeat being carried out on a different day (thus providing three biological replicas). The controls were also carried out three times, as above. The values shown are the average (mean) of the three single values obtained (as detailed above) for each combination of bacterium with dipeptide, at 24 hrs and at 48 hrs. […] This value was selected in order to exclude low-stimulating metabolites and avoid false positive results.

| Compound | metabolic activity: OD 492 nm divided by OD of control (Actinomyces naeslundii; 24 hrs) | metabolic activity: OD 492 nm divided by OD of control (Actinomyces naeslundii; 48 hrs) | metabolic activity: OD 492 nm divided by OD of control (Actinomyces viscosus; 24 hrs) | metabolic activity: OD 492 nm divided by OD of control (Actinomyces viscosus; 48 hrs) | metabolic activity: OD 492 nm divided by OD of control ([1]; 24 hrs) | metabolic activity: OD 492 nm divided by OD of control ([1]; 48 hrs) | metabolic activity: OD 492 nm divided by OD of control (Capnocytophaga sputigena; 24 hrs) | metabolic activity: OD 492 nm divided by OD of control (Capnocytophaga sputigena; 48 hrs) | metabolic activity: OD 492 nm divided by OD of control (Fusobacterium nucleatum; 24 hrs) | metabolic activity: OD 492 nm divided by OD of control (Fusobacterium nucleatum; 48 hrs) | metabolic activity: OD 492 nm divided by OD of control (Porphyromonas gingivalis; 24 hrs) | metabolic activity: OD 492 nm divided by OD of control (Porphyromonas gingivalis; 48 hrs) | metabolic activity: OD 492 nm divided by OD of control (Prevotella intermedia; 24 hrs) | metabolic activity: OD 492 nm divided by OD of control (Prevotella intermedia; 48 hrs) | metabolic activity: OD 492 nm divided by OD of control (Streptococcus gordonii; 24 hrs) | metabolic activity: OD 492 nm divided by OD of control (Streptococcus gordonii; 48 hrs) | metabolic activity: OD 492 nm divided by OD of control (Streptococcus mitis; 24 hrs) | metabolic activity: OD 492 nm divided by OD of control (Streptococcus mitis; 48 hrs) | metabolic activity: OD 492 nm divided by OD of control (Streptococcus mutans; 24 hrs) | metabolic activity: OD 492 nm divided by OD of control (Streptococcus mutans; 48 hrs) | also measured |
| --- | --- | --- | --- | --- | --- | --- | --- | --- | --- | --- | --- | --- | --- | --- | --- | --- | --- | --- | --- | --- | --- |
| CC(C)C(NC(=O)C(N)CO)C(=O)O (stereo not drawn) [Ser-Val] (H-Ser-Val-OH; configuration not given here) | 1.4073 | 1.7338 | 2.1120 | 2.4349 | 1.4527 | 1.9697 | 1.4541 | 1.4933 | 1.3741 | 1.5983 | 1.3880 | 1.9267 | 1.4709 | 1.7953 | 1.4328 | 1.7640 | 1.4166 | 1.8051 | 1.4622 | 2.0721 | metabolic activity: OD 492 nm divided by OD of control (Streptococcus salivarius; 24 hrs): 1.3826; metabolic activity: OD 492 nm divided by OD of control (Streptococcus salivarius; 48 hrs): 1.9626; metabolic activity: OD 492 nm divided by OD of control (Streptococcus sanguinis; 24 hrs): 1.2030; metabolic activity: OD 492 nm divided by OD of control (Streptococcus sanguinis; 48 hrs): 1.5280; metabolic activity: OD 492 nm divided by OD of control (Streptococcus sobrinus; 24 hrs): 1.3133; metabolic activity: OD 492 nm divided by OD of control (Streptococcus sobrinus; 48 hrs): 1.8354; metabolic activity: OD 492 nm divided by OD of control (Tannerella forsythia; 24 hrs): 1.2842; metabolic activity: OD 492 nm divided by OD of control (Tannerella forsythia; 48 hrs): 1.7260; metabolic activity: OD 492 nm divided by OD of control (Veillonella parvula; 24 hrs): 1.2776; metabolic activity: OD 492 nm divided by OD of control (Veillonella parvula; 48 hrs): 1.3095; prebiotic effects (metabolic activity) ([2]; 24 hrs): exhibited prebiotic effects; speed of metabolism by beneficial versus pathogenic bacteria ([2]; value of 2 reached at 24 hrs for beneficial but not pathogenic bacteria): metabolized faster by the beneficial bacteria than by the pathogenic bacteria |
| Ser-Asn | 1.3199 | 1.6167 | 1.7174 | 2.0421 | 1.3093 | 1.7285 | 2.2418 | 1.5699 | 1.2165 | 1.4289 | 1.0079 | 1.2165 | 1.1002 | 1.1329 | 0.8814 | 1.3337 | 1.0807 | 1.5785 | 1.2715 | 1.7588 | metabolic activity: OD 492 nm divided by OD of control (Streptococcus salivarius; 24 hrs): 1.1917; metabolic activity: OD 492 nm divided by OD of control (Streptococcus salivarius; 48 hrs): 1.5886; metabolic activity: OD 492 nm divided by OD of control (Streptococcus sanguinis; 24 hrs): 1.1935; metabolic activity: OD 492 nm divided by OD of control (Streptococcus sanguinis; 48 hrs): 1.5794; metabolic activity: OD 492 nm divided by OD of control (Streptococcus sobrinus; 24 hrs): 1.2753; metabolic activity: OD 492 nm divided by OD of control (Streptococcus sobrinus; 48 hrs): 1.7028; metabolic activity: OD 492 nm divided by OD of control (Tannerella forsythia; 24 hrs): 1.2030; metabolic activity: OD 492 nm divided by OD of control (Tannerella forsythia; 48 hrs): 1.4354; metabolic activity: OD 492 nm divided by OD of control (Veillonella parvula; 24 hrs): 1.1101; metabolic activity: OD 492 nm divided by OD of control (Veillonella parvula; 48 hrs): 1.1143; prebiotic effects (metabolic activity) ([2]; 24 hrs): exhibited prebiotic effects; prebiotic effects (metabolic activity) ([2]; 48 hrs): exhibited prebiotic effects |
